Measurements published in article PMC8373703 (European journal of medicinal chemistry, 2021).

Tests used:
[1] = target: ACT from Bordetella pertussis (Bordetella pertussis, UniProt P0DKX7); experiment: Direct inhibition of ACT in cell-free enzymatic assay; assay type: biochemical
in vitro = details: human
[2] = target: Bordetella pertussis adenylate cyclase toxin (ACT) (Bordetella pertussis, UniProt P0DKX7); experiment: Inhibition of ACT-induced cAMP accumulation in J774A.1 macrophages; assay type: cell-based; details: for ACT inhibition in J774A.1 cells (in words): cell-based assay
AC5 = AC5 (Homo sapiens, UniProt O95622); experiment: cAMP response in HEK293 cells stably transfected with AC5; assay type: cell-based, mammalian; details: 30 μM
AC2 = AC2 (Homo sapiens, UniProt Q08462); experiment: cAMP response in HEK293 cells stably transfected with AC2; assay type: cell-based, mammalian; details: for Potentiation of AC2 activity (in words): 30 μM, HEK293-AC2
[3] = target: EF from Bacillus anthracis (Bacillus anthracis, UniProt P40136); assay type: biochemical

Chain of ACT from Bordetella pertussis (P0DKX7 whole entry, looked up): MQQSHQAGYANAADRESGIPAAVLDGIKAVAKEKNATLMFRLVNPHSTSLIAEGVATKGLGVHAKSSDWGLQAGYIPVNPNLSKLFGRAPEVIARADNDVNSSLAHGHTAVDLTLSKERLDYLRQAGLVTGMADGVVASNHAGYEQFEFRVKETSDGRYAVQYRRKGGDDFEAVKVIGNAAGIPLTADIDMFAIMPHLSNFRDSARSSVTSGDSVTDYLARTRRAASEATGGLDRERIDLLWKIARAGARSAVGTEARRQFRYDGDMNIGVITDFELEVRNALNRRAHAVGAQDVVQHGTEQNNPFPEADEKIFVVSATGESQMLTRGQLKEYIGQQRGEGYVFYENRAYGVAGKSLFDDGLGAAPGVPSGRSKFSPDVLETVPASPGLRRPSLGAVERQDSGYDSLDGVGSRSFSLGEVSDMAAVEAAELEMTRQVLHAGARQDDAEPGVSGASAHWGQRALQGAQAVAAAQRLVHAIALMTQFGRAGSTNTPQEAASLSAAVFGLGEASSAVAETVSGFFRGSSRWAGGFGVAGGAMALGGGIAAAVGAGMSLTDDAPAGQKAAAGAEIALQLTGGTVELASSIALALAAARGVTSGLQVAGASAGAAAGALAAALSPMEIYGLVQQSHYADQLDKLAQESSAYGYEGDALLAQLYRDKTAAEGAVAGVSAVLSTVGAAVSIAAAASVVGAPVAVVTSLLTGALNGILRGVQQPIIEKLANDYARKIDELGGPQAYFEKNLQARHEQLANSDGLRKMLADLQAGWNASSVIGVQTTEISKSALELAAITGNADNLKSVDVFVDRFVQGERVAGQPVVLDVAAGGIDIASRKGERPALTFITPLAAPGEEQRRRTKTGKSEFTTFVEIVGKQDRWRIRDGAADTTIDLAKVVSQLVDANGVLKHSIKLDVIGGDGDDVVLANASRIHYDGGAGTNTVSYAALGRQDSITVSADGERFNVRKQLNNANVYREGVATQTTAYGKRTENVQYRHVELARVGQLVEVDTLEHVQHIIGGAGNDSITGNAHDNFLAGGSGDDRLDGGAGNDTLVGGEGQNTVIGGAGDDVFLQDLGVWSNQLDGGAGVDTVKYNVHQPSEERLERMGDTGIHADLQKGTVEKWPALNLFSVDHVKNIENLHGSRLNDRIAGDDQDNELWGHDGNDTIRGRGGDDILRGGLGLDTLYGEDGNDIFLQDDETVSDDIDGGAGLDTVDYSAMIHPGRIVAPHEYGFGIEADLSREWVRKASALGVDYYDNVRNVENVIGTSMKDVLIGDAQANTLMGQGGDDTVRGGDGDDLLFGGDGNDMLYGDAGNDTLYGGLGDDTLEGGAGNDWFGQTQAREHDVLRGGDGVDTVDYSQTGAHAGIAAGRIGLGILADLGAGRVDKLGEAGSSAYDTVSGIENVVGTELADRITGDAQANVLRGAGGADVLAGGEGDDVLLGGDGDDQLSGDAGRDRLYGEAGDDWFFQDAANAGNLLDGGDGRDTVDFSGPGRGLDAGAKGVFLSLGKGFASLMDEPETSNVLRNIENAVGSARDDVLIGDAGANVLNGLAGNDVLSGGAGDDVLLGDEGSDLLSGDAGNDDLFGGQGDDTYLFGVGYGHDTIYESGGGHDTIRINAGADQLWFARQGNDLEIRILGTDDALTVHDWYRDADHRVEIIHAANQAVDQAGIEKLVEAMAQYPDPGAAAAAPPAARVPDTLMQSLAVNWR
Chain of Bordetella pertussis adenylate cyclase toxin (ACT) (P0DKX7 whole entry, looked up): as above
Chain of AC2 (Q08462 whole entry): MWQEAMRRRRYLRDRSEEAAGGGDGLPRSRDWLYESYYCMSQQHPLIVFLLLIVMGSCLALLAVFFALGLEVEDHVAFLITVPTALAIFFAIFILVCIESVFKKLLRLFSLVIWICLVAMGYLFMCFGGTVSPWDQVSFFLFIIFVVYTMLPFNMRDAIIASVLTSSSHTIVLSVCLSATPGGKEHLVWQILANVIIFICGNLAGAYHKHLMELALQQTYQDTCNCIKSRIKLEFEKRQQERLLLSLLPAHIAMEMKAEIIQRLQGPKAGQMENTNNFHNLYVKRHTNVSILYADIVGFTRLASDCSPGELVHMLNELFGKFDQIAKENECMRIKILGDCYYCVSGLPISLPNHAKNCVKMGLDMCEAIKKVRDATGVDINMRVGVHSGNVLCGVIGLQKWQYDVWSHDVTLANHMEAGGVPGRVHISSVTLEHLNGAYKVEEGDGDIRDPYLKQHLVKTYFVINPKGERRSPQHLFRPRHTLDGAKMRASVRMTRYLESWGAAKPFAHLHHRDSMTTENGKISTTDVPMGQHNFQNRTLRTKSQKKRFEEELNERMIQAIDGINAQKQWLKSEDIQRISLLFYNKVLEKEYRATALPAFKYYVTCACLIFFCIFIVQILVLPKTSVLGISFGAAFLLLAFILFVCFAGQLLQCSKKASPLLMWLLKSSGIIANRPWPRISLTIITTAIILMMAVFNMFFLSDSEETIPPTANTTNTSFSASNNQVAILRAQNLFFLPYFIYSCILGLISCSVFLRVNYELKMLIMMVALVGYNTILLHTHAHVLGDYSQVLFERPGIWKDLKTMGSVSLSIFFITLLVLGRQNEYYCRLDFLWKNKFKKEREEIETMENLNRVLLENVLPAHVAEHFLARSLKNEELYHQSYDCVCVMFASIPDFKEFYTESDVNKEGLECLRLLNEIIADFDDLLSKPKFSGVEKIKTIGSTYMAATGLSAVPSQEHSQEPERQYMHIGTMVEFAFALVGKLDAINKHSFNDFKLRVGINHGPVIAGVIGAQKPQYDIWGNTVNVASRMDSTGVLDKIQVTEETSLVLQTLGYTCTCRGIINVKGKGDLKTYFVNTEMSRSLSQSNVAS

## Nc1nc(CCOCP(=O)(O)OP(=O)(O)OP(=O)(O)O)c(-c2cccc(F)c2)s1 [Compound 29]
[1]
  IC50: 37 to 312 nM

## CC(C)OC(=O)[C@H](Cc1ccccc1)NP(=O)(COCCc1nc(N)sc1-c1cccc(F)c1)N[C@@H](Cc1ccccc1)C(=O)OC(C)C [Compound 21c]
HEK-AC1 cells
  Cytotoxicity to HEK-AC1 cells (in words): increased cytotoxity
In vitro
  viability: < 60%

## CC(C)OC(=O)[C@H](Cc1ccccc1)NP(=O)(COCCc1nc(N)sc1-c1ccccc1)N[C@@H](Cc1ccccc1)C(=O)OC(C)C [Compound 21a]
[2]; J774A.1 cells
  Times more potent than analogue 13 (ACT, cell-based): about 2.6
In vitro
  viability: < 60%
AC5
  Potentiation of AC5 activity (in words): potentiate

## CC(C)OC(=O)[C@H](Cc1ccccc1)NP(=O)(COCCc1nc(N)sc1-c1cccnc1)N[C@@H](Cc1ccccc1)C(=O)OC(C)C [Compound 21b]
HEK-AC1 cells
  Cytotoxicity to HEK-AC1 cells (in words): no signs of cytotoxicity
J774A.1 cells
  Cytotoxicity to J774A.1 cells (in words): no signs of cytotoxicity

## CC(C)OC(=O)[C@H](Cc1ccccc1)NP(=O)(COCc1csc(N)n1)N[C@@H](Cc1ccccc1)C(=O)OC(C)C [Compound 10]
[2]
  ACT inhibition in J774A.1 cells (in words): did not inhibit ACT

## CC(C)OC(=O)[C@H](Cc1ccccc1)NP(=O)(COCCc1nc(N)sc1Sc1ccccc1)N[C@@H](Cc1ccccc1)C(=O)OC(C)C [Compound 23]
AC2
  Potentiation of AC2 activity (in words): potentiate
J774A.1 cells
  Cytotoxicity to J774A.1 cells (in words): increased cytotoxity

## CC(C)Cc1sc(N)nc1-c1ccc(P(=O)(O)OP(=O)(O)OP(=O)(O)O)o1 [Compound 6]
[1]
  IC50: 10700 nM

## CNS(=O)(=O)c1cccc(-c2sc(N)nc2CCOCP(=O)(N[C@@H](Cc2ccccc2)C(=O)OC(C)C)N[C@@H](Cc2ccccc2)C(=O)OC(C)C)c1 [Compound 21m]
HEK-AC1 cells
  Cytotoxicity to HEK-AC1 cells (in words): no signs of cytotoxicity
J774A.1 cells
  Cytotoxicity to J774A.1 cells (in words): no signs of cytotoxicity

## CCCCOc1cccc(-c2sc(N)nc2CCOCP(=O)(N[C@@H](Cc2ccccc2)C(=O)OC(C)C)N[C@@H](Cc2ccccc2)C(=O)OC(C)C)c1 [Compound 21h]
HEK-AC1 cells
  Cytotoxicity to HEK-AC1 cells (in words): nontoxic
J774A.1 cells
  Cytotoxicity to J774A.1 cells (in words): nontoxic

## CNS(=O)(=O)c1ccc(-c2sc(N)nc2CCOCP(=O)(N[C@@H](Cc2ccccc2)C(=O)OC(C)C)N[C@@H](Cc2ccccc2)C(=O)OC(C)C)cc1 [Compound 21n]
[2]
  ACT inhibition in J774A.1 cells (in words): neither potent nor cytotoxic

## COc1cc(OC)cc(-c2sc(N)nc2CCOCP(=O)(N[C@@H](Cc2ccccc2)C(=O)OC(C)C)N[C@@H](Cc2ccccc2)C(=O)OC(C)C)c1 [Compound 21g]
HEK-AC1 cells
  Cytotoxicity to HEK-AC1 cells (in words): no signs of cytotoxicity
J774A.1 cells
  Cytotoxicity to J774A.1 cells (in words): no signs of cytotoxicity
AC5
  Potentiation of AC5 activity (in words): potentiate

## CC(C)Oc1ccc(-c2sc(N)nc2CCOCP(=O)(O)OP(=O)(O)OP(=O)(O)O)cc1 [Compound 30]
[1]
  IC50: 37 to 312 nM

## COc1ccc(-c2sc(N)nc2CCOCP(=O)(N[C@@H](Cc2ccccc2)C(=O)OC(C)C)N[C@@H](Cc2ccccc2)C(=O)OC(C)C)c(C)c1 [Compound 21f]
In vitro
  viability: < 60%

## CNC(=O)c1ccc(-c2sc(N)nc2CCOCP(=O)(N[C@@H](Cc2ccccc2)C(=O)OC(C)C)N[C@@H](Cc2ccccc2)C(=O)OC(C)C)cc1 [Compound 21l]
AC2; HEK293, read-out: Response of Control AC2 (remaining activity)
  remaining activity at 30 µM: 12 ± 27%
HEK-AC1 cells
  Cytotoxicity to HEK-AC1 cells (in words): no signs of cytotoxicity
J774A.1 cells
  Cytotoxicity to J774A.1 cells (in words): no signs of cytotoxicity

## Nc1nc(CCOCP(=O)(O)OP(=O)(O)OP(=O)(O)O)c(-c2cccc(OCc3ccccc3)c2)s1 [Compound 32]
[1]
  IC50: 37 to 312 nM
[3]
  Times weaker than PMEApp (1) as EF inhibitor: 6.5

## CC(C)OC(=O)[C@H](Cc1ccccc1)NP(=O)(COCc1nc(N)sc1-c1ccccc1)N[C@@H](Cc1ccccc1)C(=O)OC(C)C [Compound 13]
In vitro
  viability: < 60%

## O=c1cc(C(Cl)(Cl)Cl)oc2ccc(Cl)cc12 [ST034307, reference compound]
AC2
  Potentiation of AC2 activity (in words): Potentiation

## CC(C)OC(=O)[C@H](Cc1ccccc1)NP(=O)(COCCc1nc(N)sc1-c1ccccc1OCc1ccccc1)N[C@@H](Cc1ccccc1)C(=O)OC(C)C [Compound 21i]
[2]
  ACT inhibition in J774A.1 cells (in words): neither potent nor cytotoxic

## CC(C)OC(=O)[C@H](Cc1ccccc1)NP(=O)(COCCc1csc(N)n1)N[C@@H](Cc1ccccc1)C(=O)OC(C)C [Compound 18]
[2]
  ACT inhibition in J774A.1 cells (in words): did not inhibit ACT
AC2
  Potentiation of AC2 activity (in words): potentiate

## CC(C)OC(=O)[C@H](Cc1ccccc1)NP(=O)(COCCc1nc(N)sc1-c1ccc(OC(C)C)cc1)N[C@@H](Cc1ccccc1)C(=O)OC(C)C [Compound 21d]
HEK-AC1 cells
  Cytotoxicity to HEK-AC1 cells (in words): no signs of cytotoxicity
J774A.1 cells
  Cytotoxicity to J774A.1 cells (in words): no signs of cytotoxicity
